Test results reported in the supplement of paper PMC10307832.

What was measured:
Assay in all cases: relative viability (nuclei count vs DMSO), 5 days (fraction); higher = more cells survive
RU-SKI 43 + Pictilisib = compound: CC[C@@H](C)CNCC(=O)N1CCC2=C([C@@H]1COC3=CC=CC(=C3)C)C=CS2 [RU-SKI 43] + CS(=O)(=O)N1CCN(Cc2cc3nc(-c4cccc5[nH]ncc45)nc(N4CCOCC4)c3s2)CC1 [Pictilisib] (partner 1 µM)
Procedure, shortened: (§1)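 Lung cancer cell lines were pin-tool dosed in 1536-well plates on the day after seeding, with either a lone drug or a fixed anchor-drug dose plus five library-drug doses (not always all listed) in √10 steps. Nuclei were counted on 4× images after 5 days. Relative viability is the ratio of treated-well to vehicle-well nuclei counts, with each value a median of duplicate plates.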

MK-8033 + Trametinib = compound: Cn1cc(-c2cnc3ccc4ccc(CS(=O)(=O)NCc5ccccn5)cc4c(=O)c3c2)cn1 [MK-8033] + CC(=O)Nc1cccc(-n2c(=O)n(C3CC3)c(=O)c3c(Nc4ccc(I)cc4F)n(C)c(=O)c(C)c32)c1 [Trametinib] (partner 0.02 µM)
Procedure, shortened: as §1

MK-8033 + Palbociclib = compound: Cn1cc(-c2cnc3ccc4ccc(CS(=O)(=O)NCc5ccccn5)cc4c(=O)c3c2)cn1 [MK-8033] + CC(=O)c1c(C)c2cnc(Nc3ccc(N4CCNCC4)cn3)nc2n(C2CCCC2)c1=O [Palbociclib] (partner 0.5 µM)
Procedure, shortened: as §1

MK-8033 + AZD7762 = compound: Cn1cc(-c2cnc3ccc4ccc(CS(=O)(=O)NCc5ccccn5)cc4c(=O)c3c2)cn1 [MK-8033] + NC(=O)Nc1cc(-c2cccc(F)c2)sc1C(=O)N[C@H]1CCCNC1 [AZD7762] (partner 0.2 µM)
Procedure, shortened: as §1

Cell Line	relative viability (RU-SKI 43 + Pictilisib; first compound 0.1 µM)	relative viability (RU-SKI 43 + Pictilisib; first compound 0.3162 µM)	relative viability (RU-SKI 43 + Pictilisib; first compound 1 µM)	relative viability (RU-SKI 43 + Pictilisib; first compound 3.162 µM)	relative viability (RU-SKI 43 + Pictilisib; first compound 10 µM)	relative viability (MK-8033 + Trametinib; first compound 0.02 µM)	relative viability (MK-8033 + Trametinib; first compound 0.06325 µM)	relative viability (MK-8033 + Trametinib; first compound 0.2 µM)	relative viability (MK-8033 + Trametinib; first compound 0.6325 µM)	relative viability (MK-8033 + Trametinib; first compound 2 µM)	relative viability (MK-8033 + Palbociclib; first compound 0.02 µM)	relative viability (MK-8033 + Palbociclib; first compound 0.06325 µM)	relative viability (MK-8033 + Palbociclib; first compound 0.2 µM)	relative viability (MK-8033 + Palbociclib; first compound 0.6325 µM)	relative viability (MK-8033 + Palbociclib; first compound 2 µM)	relative viability (MK-8033 + AZD7762; first compound 0.02 µM)	relative viability (MK-8033 + AZD7762; first compound 0.06325 µM)	relative viability (MK-8033 + AZD7762; first compound 0.2 µM)	relative viability (MK-8033 + AZD7762; first compound 0.6325 µM)	relative viability (MK-8033 + AZD7762; first compound 2 µM)
NCI-H322M	0.586	0.469	0.559	0.51	0.482	0.527	0.565	0.488	0.585	0.476	0.531	0.443	0.45	0.49	0.433	0.535	0.47	0.518	0.609	0.697
NCI-H358	0.291	0.315	0.332	0.336	0.286	0.141	0.124	0.11	0.146	0.131	0.144	0.129	0.128	0.136	0.151	0.541	0.347	0.431	0.428	0.458
NCI-H441	0.466	0.491	0.47	0.609	0.468	0.376	0.343	0.391	0.487	0.437	0.182	0.189	0.217	0.275	0.238	1	1.09	1.24	0.984	0.94
NCI-H460	0.335	0.35	0.45	0.263	0.238	0.116	0.0888	0.0918	0.155	0.0855	0.162	0.147	0.103	0.177	0.172	0.77	0.673	0.571	0.505	0.598
NCI-H647	0.392	–	0.547	0.428	0.412	0.449	0.469	0.412	0.456	0.415	0.365	0.338	0.351	0.404	0.43	0.59	0.452	0.408	0.471	0.549
NCI-H650	0.947	0.793	0.829	–	0.926	1.06	1.02	0.973	0.939	0.884	0.346	0.316	0.324	0.316	0.307	0.947	0.997	0.982	0.945	0.985
NCI-H727	0.31	0.305	0.438	0.497	0.377	0.371	0.358	0.339	0.393	0.429	0.668	0.617	0.653	0.612	0.657	0.697	0.614	0.519	0.758	0.574
NCI-H838	0.471	0.434	0.544	0.444	0.445	0.488	0.506	0.534	0.525	0.51	0.213	0.207	0.217	0.213	0.22	0.904	0.92	0.945	0.901	0.862
SW 900	–	–	–	–	–	0.762	0.583	0.612	0.936	0.848	0.518	0.536	0.493	0.519	0.495	0.575	0.487	0.564	0.621	0.498
